Source: ChEMBL document CHEMBL6083229, “Bisubstrate inhibitors of 6-hydroxymethyl-7,8-dihydroptein pyrophosphokinase: Toward cell permeability” (Bioorg Med Chem Lett, 2024)
Values after ≈ are worked out from the molar mass of the structure shown.

How the values were obtained:
Escherichia coli = test: Antibacterial activity against Escherichia coli MG1655 assessed as inhibition of bacterial growth in LB media; assay type: functional
[1] = Binding affinity to HPPK (unknown origin) assessed as dissociation constant by MST analysis; design: species or system Bacteria
[2] = tested on: Staphylococcus epidermidis; test: Antibacterial activity against Staphylococcus epidermidis assessed as inhibition of bacterial growth in LB media; assay type: functional

Nc1nc2[nH]cc(CCCN3CCC(SC[C@H]4O[C@@H](n5cnc6c(N)ncnc65)[C@H](O)[C@@H]4O)CC3C(=O)O)c2c(=O)[nH]1 (stereo partly specified)
MIC10 (Escherichia coli): 400 µM (≈ 240 µg/mL) | MIC30 (Escherichia coli): 2000 µM (≈ 1200 µg/mL) | Kd [1]: 12.8 µM | MIC50 [2]: 120 µM (≈ 72.1 µg/mL) | MIC90 [2]: 240 µM (≈ 144 µg/mL) | MIC ([2]; read-out: MIC100): 400 µM (≈ 240 µg/mL)
